For 20 compounds, TGI results are on record in PubChem BioAssay (NCI).

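Test compounds were applied to cells in 96-well plates for 48 hours at 5 doses. At the TGI there is no net growth.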

What all share (test): NCI tumour cell line growth inhibition, 48 h
In experiment [1] the test system is SF-295 CNS.
The test system of experiment [2] is MDA-MB-231 breast.
In experiment [3] the test system is A549 NSCLC.
The subject of experiment [4] is SF-539 CNS.
Experiment [5] concerns NCI-H460 lung.
The subject of experiment [6] is MALME-3M melanoma.
Experiment [7] has as its system MDA-N.
For experiment [8], the system named is UO-31 renal.
Experiment [9] deals with K-562 leukemia.
For experiment [10], the system named is SW-620 colon.

Take `CC(C)=CCC[C@@H](C)C1=C(O)C(Nc2ccccc2I)=C(C)C(=O)C1=O`: the TGI was above 38.9 µM in experiment [1]; above 75 µM in experiment [2]; above 50.6 µM in [3]; 30 µM in experiment [4]; above 75 µM in [5]; 29.8 µM in experiment [6]. Besides, the TGI is above 75 µM in [7], 35.7 µM in experiment [8], above 66.8 µM in experiment [9] and above 75 µM in [10].
Regarding `CC(=O)C(C)(C)CCC(C)(C)C(C)=O`, the TGI in experiment [1], in [2], in [3], in experiment [4], in experiment [5] and in experiment [6] was above 100 µM in each case. The TGI in experiment [7], in experiment [8], in experiment [9] and in experiment [10] was above 100 µM throughout.
With `N#Cc1c(N)nc2c3c1NC(=O)C(C(N)=O)C3c1ccccc1O2` (stereo unspecified), the TGI in experiment [1], in [2], in experiment [3], in [4], in [5] and in [6] was above 100 µM each time. In addition, the TGI in [7], in experiment [8], in experiment [9] and in [10] was above 100 µM each time.
For `OC(NN=C1CCCC1)(C(F)(F)Cl)C(F)(F)Cl`, the TGI in [1], in experiment [2], in [3], in [4], in experiment [5] and in [6] was above 10 µM each time. Moreover, the TGI in experiment [7], in experiment [9] and in experiment [10] was above 10 µM throughout.
Consider `Cc1ncc(COP(=O)(O)O)c(/C=C2\SC(=S)NC2=O)c1O`, for which the TGI in experiment [1], in experiment [2], in experiment [3], in experiment [4], in experiment [5] and in experiment [6] was above 100 µM throughout. Besides, the TGI in experiment [7], in [8], in experiment [9] and in experiment [10] was above 100 µM each time.
In the case of `COC(=O)Cn1cnc2c(Cl)nc(Nc3ccccc3)nc21`, the TGI in experiment [1], in experiment [2], in experiment [3], in experiment [4], in [5] and in [6] was above 100 µM in each case. Moreover, the TGI in [7], in experiment [9] and in experiment [10] was above 100 µM each time.
Turning to `Cc1nc(-c2cc3ccccc3oc2=O)cs1`, the TGI was above 100 µM in experiment [1]; 72.6 µM in [2]; above 100 µM in experiment [3]; above 100 µM in experiment [4]; above 100 µM in [5]; above 100 µM in [6]. The TGI in experiment [7], in experiment [8], in [9] and in experiment [10] was above 100 µM throughout.
`COC(=O)Nc1nc2ccc(NC(=O)c3ccc(I)cc3)cc2[nH]1`: the TGI in experiment [1], in [2], in [3], in experiment [4], in experiment [5] and in experiment [6] was above 100 µM throughout. Besides, the TGI in experiment [7], in [8], in experiment [9] and in experiment [10] was above 100 µM in each case.
With `NCCSCCC(=O)O`, the TGI in experiment [1] was above 92.3 µM; in experiment [2] it was above 100 µM; in experiment [3], above 100 µM; in experiment [4], above 100 µM; in experiment [5], above 37.9 µM; in experiment [6] it was above 100 µM. Further, the TGI in experiment [7], in experiment [8], in experiment [9] and in [10] was above 100 µM throughout.
Consider `CC(C)Oc1cccc(N2C(Nc3ccccc3)=Nc3ccncc3S2(=O)=O)c1`, for which the TGI in [1] was 95.1 µM; in experiment [2], above 100 µM; in experiment [3] it was above 100 µM; in experiment [4], 44.9 µM; in experiment [5], above 100 µM; in experiment [6], 63.7 µM. Moreover, the TGI is above 100 µM in [7], above 100 µM in [8], above 100 µM in experiment [9] and 57.4 µM in experiment [10].
Take `COc1cc(N(CCC#N)CCC#N)ccc1/C=N\NC(=O)c1ccc(C)cc1`: the TGI in experiment [1] was above 100 µM; in experiment [2], 36.7 µM; in [3], above 100 µM; in experiment [4], above 100 µM; in experiment [5] it was above 100 µM; in experiment [6] it was above 100 µM. Moreover, the TGI in experiment [7], in experiment [9] and in [10] was above 100 µM in each case.
For `O=C1NC(Cc2ccc(O)cc2)C(=O)NC1Cc1ccc(O)cc1` (stereo unspecified), the TGI in [1], in experiment [2], in experiment [3], in [4], in [5] and in experiment [6] was above 100 µM each time. In addition, the TGI in [7], in [8], in experiment [9] and in experiment [10] was above 100 µM throughout.
For `CCOC1=C(c2ccccc2)N2CCCCC2O1` (stereo unspecified), the TGI is 15.5 µM in [1]; above 48.5 µM in [2]; above 100 µM in experiment [3]; 34.8 µM in experiment [4]; 15 µM in [5]; 20.7 µM in experiment [6]. Moreover, the TGI is 21.7 µM in experiment [7], above 79.8 µM in experiment [8], above 47.5 µM in experiment [9] and 36.4 µM in experiment [10].
Take `Oc1ccc(-c2nc3ccccc3s2)cc1`: the TGI in [1] is above 100 µM; in experiment [2], 63.4 µM; in experiment [3], above 100 µM; in experiment [4], above 100 µM; in [5], above 100 µM; in [6] it was above 100 µM. In addition, the TGI in experiment [7], in [8], in [9] and in [10] was above 100 µM in each case.
Regarding `Cc1ccccc1NC(=O)CC(=O)NNC(Sc1ccccc1)c1cc(N=Nc2ccc(Br)cc2)ccc1O` (stereo unspecified), the TGI in [1] was above 10 µM; in experiment [2], 6.05 µM; in experiment [3], above 10 µM; in experiment [4] it was 4.73 µM; in experiment [5] it was above 10 µM; in [6], above 10 µM. Besides, the TGI in [7] was above 10 µM; in experiment [8] it was above 10 µM; in [9] it was 7.56 µM; in experiment [10] it was above 10 µM.
As for `COc1cccc(C2c3cc4c(cc3OC(Nc3ccccc3)C2C)OCO4)c1O` (stereo unspecified), the TGI in experiment [1] is 18.7 µM; in experiment [2], 37 µM; in experiment [3] it was 23.6 µM; in experiment [4], 18.1 µM; in experiment [5], 26.4 µM; in experiment [6], 35.3 µM. For the same compound, the TGI in experiment [7] came out at 6.98 µM; in experiment [8], 32.4 µM; in experiment [9] it was 15 µM; in [10] it was 36.8 µM.
Take `CC(C)(C)C1=C(Br)C(O)(C(C)(C)C)OP1(=O)c1ccccc1` (stereo unspecified): the TGI in [1], in [2], in experiment [3], in experiment [4], in [5] and in experiment [6] was above 100 µM each time. The TGI in experiment [7], in experiment [9] and in experiment [10] was above 100 µM throughout.
As for `O=C(O)c1cccc(NC(C(=O)c2ccccc2)c2ccccc2)c1` (stereo unspecified), the TGI in [1], in experiment [2], in [3], in experiment [4], in [5] and in [6] was above 100 µM throughout. Moreover, the TGI in experiment [7], in experiment [8], in [9] and in experiment [10] was above 100 µM in each case.
Take `CC(C)CCOC(=O)NC(Nc1ccc(F)cc1)(C(F)(F)F)C(F)(F)F`: the TGI in experiment [1] is above 100 µM; in experiment [2] it was 76.1 µM; in [3], above 100 µM; in [4], 46.1 µM; in experiment [5], above 100 µM; in [6], above 100 µM. The TGI is above 100 µM in experiment [7], 36.5 µM in experiment [8], above 100 µM in experiment [9] and above 100 µM in experiment [10].
Regarding `CCNc1cc2c3c(c1)CCN3CCC2`, the TGI in experiment [1], in experiment [2], in experiment [3], in experiment [4], in [5] and in experiment [6] was above 10 µM each time. In addition, the TGI in experiment [7] is above 10 µM; in [8], above 10 µM; in experiment [9], 5.05 µM; in [10], above 10 µM.
